The values below come from US12180207B2 (ARRAY BIOPHARMA INC., priority 2018, dated 2024).

Test [1] deals with recombinant human FGFR2 cytoplasmic domain (amino acids 403-822) (Homo sapiens (Human), UniProt P21802). The test is described as follows: FGFR2 enzyme activity assay (LanthaScreen TR-FRET). As to conditions: 15 μM ATP, 20 min incubation at 22° C., average of multiple determinations if made, read-out: FGFR2 Enz FRET IC50. The test is classed as biochemical. The essentials: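 His-tagged FGFR2 cytoplasmic domain ([…]) with 100 nM Alexa Fluor 647-poly-GT peptide and 15 μM ATP in HEPES/MgCl2/Triton buffer, pH 7.5, 2% DMSO, 20 min at 22 °C. EDTA-quenched, Eu-PY20 antibody added, TR-FRET read after 60 min.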
Background: TR-FRET usually uses a lanthanide donor and a delayed reading to cut background.

In test [2] the target is phosphorylated FGFR3 (SEQ ID NO: 5, amino acids 449 to 759) (Homo sapiens (Human), UniProt P22607). The test is described as follows: FGFR enzyme binding assay (HTRF tracer displacement), FGFR3. As to conditions: 5 nM phosphorylated FGFR3, average of multiple determinations if made. The essentials: (§1)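 Compounds were tested for displacement of a tracer from human FGFR kinase in a time-resolved FRET binding format. After 60 minutes at 22° C, signal was read at two wavelengths and converted to percent of control, normalised between untreated wells and 1 μM reference inhibitor.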

For test [3], the target named is FGFR1 (SEQ ID NO: 1, amino acids 458-765) (Homo sapiens (Human), UniProt P11362). As to the kind of experiment: LC/MS FGFR1 kobs assay (covalent protein modification). It is filed as binding. To be noted: 500 nM FGFR1, 3 μM compound. An outline of the steps: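 Covalent labeling of FGFR1 kinase domain (aa 458-765) tracked over time by intact-protein LC/MS after formic acid quench. kobs derived by fitting DMSO-normalized percent unmodified FGFR1 to an exponential decay model.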

In test [4] the target is recombinant human FGFR1 catalytic domain (amino acids 308-731) (Homo sapiens (Human), UniProt P11362). As to the kind of experiment: FGFR1 enzyme activity assay (LanthaScreen TR-FRET). The test is classed as biochemical. As to conditions: 20 min incubation at 22° C., average of multiple determinations if made, read-out: FGFR1 Enz FRET IC50. The essentials: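 His-tagged FGFR1 kinase domain with 100 nM Alexa Fluor 647-poly-GT peptide and ATP in pH 7.5 HEPES/MgCl2 buffer with 2% DMSO, 20 min at 22 °C. Quenched with EDTA plus 2 nM Eu-PY20 antibody and read after 60 min. IC50 comes from a 4-parameter fit of percent of control.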

For test [5], the target named is FGFR3 (SEQ ID NO: 5, amino acids 449-759) (Homo sapiens (Human), UniProt P22607). The test is described as follows: LC/MS FGFR3 kobs assay (covalent protein modification). It is filed as binding. As to conditions: 500 nM FGFR3, 3 μM compound. An outline of the steps:
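The observed rate constant kobs comes from an exponential decay fit of percent unmodified kinase over time. Covalent modification was quantified by Q-TOF LC/MS of formic acid-quenched samples, normalized against DMSO controls.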

Test [6] concerns the target dephosphorylated FGFR1 (SEQ ID NO: 1, amino acids 458 to 765) (Homo sapiens (Human), UniProt P11362). As to the kind of experiment: FGFR enzyme binding assay (HTRF tracer displacement), FGFR1. As to conditions: 5 nM dephosphorylated FGFR1, average of multiple determinations if made. An outline of the steps:
as §1

dephosphorylated FGFR1 (SEQ ID NO: 1, amino acids 458 to 765), sequence (P11362 458-765): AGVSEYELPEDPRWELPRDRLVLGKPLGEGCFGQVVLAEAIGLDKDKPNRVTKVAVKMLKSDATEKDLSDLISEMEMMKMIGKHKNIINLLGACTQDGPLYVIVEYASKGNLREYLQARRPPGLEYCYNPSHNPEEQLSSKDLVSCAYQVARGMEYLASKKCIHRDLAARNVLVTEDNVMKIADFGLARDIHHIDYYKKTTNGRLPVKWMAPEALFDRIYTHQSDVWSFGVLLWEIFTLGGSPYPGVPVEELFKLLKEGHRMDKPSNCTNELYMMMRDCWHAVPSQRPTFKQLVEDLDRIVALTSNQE
FGFR1 (SEQ ID NO: 1, amino acids 458-765), sequence (P11362 458-765): as above
FGFR3 (SEQ ID NO: 5, amino acids 449-759), sequence (P22607 449-759): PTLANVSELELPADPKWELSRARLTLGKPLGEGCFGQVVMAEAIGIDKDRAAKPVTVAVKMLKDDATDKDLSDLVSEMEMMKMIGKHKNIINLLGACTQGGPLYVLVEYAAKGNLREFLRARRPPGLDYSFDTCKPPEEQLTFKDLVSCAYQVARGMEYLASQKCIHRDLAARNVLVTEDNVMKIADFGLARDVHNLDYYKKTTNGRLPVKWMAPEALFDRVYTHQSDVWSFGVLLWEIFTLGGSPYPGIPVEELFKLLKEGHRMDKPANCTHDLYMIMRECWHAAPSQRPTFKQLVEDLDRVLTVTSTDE
phosphorylated FGFR3 (SEQ ID NO: 5, amino acids 449 to 759), sequence (P22607 449-759): as above
recombinant human FGFR2 cytoplasmic domain (amino acids 403-822), sequence (P21802 402-821): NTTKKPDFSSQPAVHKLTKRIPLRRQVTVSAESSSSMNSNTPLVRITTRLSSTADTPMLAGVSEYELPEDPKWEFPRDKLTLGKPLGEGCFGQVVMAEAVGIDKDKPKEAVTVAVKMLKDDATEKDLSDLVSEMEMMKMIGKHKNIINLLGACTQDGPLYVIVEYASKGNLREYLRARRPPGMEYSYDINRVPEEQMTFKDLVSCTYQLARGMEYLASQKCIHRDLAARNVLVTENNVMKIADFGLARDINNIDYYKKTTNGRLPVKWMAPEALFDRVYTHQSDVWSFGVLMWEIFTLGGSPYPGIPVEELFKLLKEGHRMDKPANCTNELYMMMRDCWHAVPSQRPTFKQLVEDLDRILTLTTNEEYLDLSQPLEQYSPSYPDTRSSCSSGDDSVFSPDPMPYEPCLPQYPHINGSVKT
recombinant human FGFR1 catalytic domain (amino acids 308-731), sequence (P11362 other isoform, or with tags, fused parts or gaps): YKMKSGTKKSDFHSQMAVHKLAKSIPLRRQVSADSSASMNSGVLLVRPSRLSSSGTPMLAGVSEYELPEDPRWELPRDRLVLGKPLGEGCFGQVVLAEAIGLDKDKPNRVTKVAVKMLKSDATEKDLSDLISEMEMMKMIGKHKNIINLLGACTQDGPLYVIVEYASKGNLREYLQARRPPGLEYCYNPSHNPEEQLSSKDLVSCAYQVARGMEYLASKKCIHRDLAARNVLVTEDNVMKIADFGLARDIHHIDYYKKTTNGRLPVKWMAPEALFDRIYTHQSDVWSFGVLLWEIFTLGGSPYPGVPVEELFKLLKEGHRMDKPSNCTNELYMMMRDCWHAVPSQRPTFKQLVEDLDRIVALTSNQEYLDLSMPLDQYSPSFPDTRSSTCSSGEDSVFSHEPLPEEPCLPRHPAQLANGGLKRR

On to `C=CC(=O)N1CC(C(=O)N2C3CCC2CN(c2ccc(-c4cc(OC)c5c(C#N)cnn5c4)cn2)C3)C1` [Example 50, 6-(6-(8-(1-acryloylazetidine-3-carbonyl)-3,8-diazabicyclo[3.2.1]octan-3-yl)pyridin-3-yl)-4-methoxypyrazolo[1,5-a]pyridine-3-carbonitrile], for which the IC50 was 4 nM in test [1], 3 nM in test [2], 24 nM in test [4] and 27 nM in test [6]. Also, the “FGFR1 Enz kobs” value in test [3] is 0.00381 min⁻¹. Besides, in test [5], the “FGFR3 Enz kobs” value is 0.04375 min⁻¹.
Regarding `C=CC(=O)N1CC(CN2CC(n3ncc(-c4cc(OC)c5c(C#N)cnn5c4)c3C)C2)C1` [Example 92], the IC50 in test [1] came out at 131 nM; in test [2], 49 nM; in test [4], 285 nM; in test [6], 444 nM. Also, the “FGFR1 Enz kobs” value in test [3] was 0.00191 min⁻¹. For the same compound, the “FGFR3 Enz kobs” value in test [5] was found to be 0.00836 min⁻¹.
With `C=CC(=O)Nc1ccc(C(=O)N2CC[C@H](n3cc(-c4cc(OC)c5c(C#N)cnn5c4)cn3)C2)cc1C` [Example 70, (S)-N-(4-(3-(4-(3-cyano-4-methoxypyrazolo[1,5-a]pyridin-6-yl)-1H-pyrazol-1-yl)pyrrolidine-1-carbonyl)-2-methylphenyl)acrylamide], the IC50 in test [1] was found to be 4 nM; in test [2] it was 30 nM; in test [4], 16 nM; in test [6], 199 nM. Also, the “FGFR1 Enz kobs” value in test [3] is 0.00278 min⁻¹. The “FGFR3 Enz kobs” value in test [5] was 0.0114 min⁻¹.
Take `C=CC(=O)Nc1cccc(C(=O)N2CC[C@@H](n3cc(-c4cc(OC)c5c(C#N)cnn5c4)cn3)C2)c1` [Example 56, (R)-N-(3-(3-(4-(3-cyano-4-methoxypyrazolo[1,5-a]pyridin-6-yl)-1H-pyrazol-1-yl)pyrrolidine-1-carbonyl)phenyl)acrylamide]: the IC50 in test [1] turned out to be 8 nM; in test [2] it was 18 nM; in test [4] it was 28 nM; in test [6], 135 nM. For the same compound, in test [3], the “FGFR1 Enz kobs” value stood at 0.00181 min⁻¹. Besides, the “FGFR3 Enz kobs” value in test [5] was found to be 0.01264 min⁻¹.
On to `C=CC(=O)N1CC(C)(C(=O)N2CCC(n3ncc(-c4cc(OC)c5c(C#N)cnn5c4)c3C)CC2)C1` [Example 86, 6-(1-(1-(1-acryloyl-3-methylazetidine-3-carbonyl)piperidin-4-yl)-5-methyl-1H-pyrazol-4-yl)-4-methoxypyrazolo[1,5-a]pyridine-3-carbonitrile], for which the IC50 was determined as 96 nM in test [1], 9 nM in test [2], 617 nM in test [4] and 342 nM in test [6]. Besides, the “FGFR1 Enz kobs” value in test [3] turned out to be 0.00258 min⁻¹. Further, the “FGFR3 Enz kobs” value in test [5] stood at 0.02116 min⁻¹.
Take `C=CC(=O)N1CC(OC)(C(=O)N2CCC(n3cc(-c4cc(OC)c5c(C#N)cnn5c4)cn3)CC2)C1` [Example 41, 6-(1-(1-(1-acryloyl-3-methoxyazetidine-3-carbonyl)piperidin-4-yl)-1H-pyrazol-4-yl)-4-methoxypyrazolo[1,5-a]pyridine-3-carbonitrile]: the IC50 in test [1] came to 1 nM; in test [2] it was 3 nM; in test [4], 2 nM; in test [6], 61 nM. For the same compound, the “FGFR1 Enz kobs” value in test [3] was 0.00254 min⁻¹. The “FGFR3 Enz kobs” value in test [5] was determined as 0.02709 min⁻¹.
Regarding `C=CS(=O)(=O)Nc1cccc(C(=O)N2CCC(n3cc(-c4cc(OC)c5c(C#N)cnn5c4)cn3)CC2)c1` [Example 188, N-(3-(4-(4-(3-cyano-4-methoxypyrazolo[1,5-a]pyridin-6-yl)-1H-pyrazol-1-yl)piperidine-1-carbonyl)phenyl)eth-enesulfonamide], the concentration for half-maximal inhibition (IC50) was found to be 5 nM in test [1], 1 nM in test [2], 11 nM in test [4] and 14 nM in test [6]. For the same compound, the “FGFR3 Enz kobs” value in test [5] was found to be 0.08524 min⁻¹.
Turning to `C=CC(=O)N1CC(F)(C(=O)N2CCC(n3cc(-c4cc(OC)c5c(C#N)cnn5c4)cn3)CC2)C1` [Example 37, 6-(1-(1-(1-acryloyl-3-fluoroazetidine-3-carbonyl)piperidin-4-yl)-1H-pyrazol-4-yl)-4-methoxypyrazolo[1,5-a]pyridine-3-carbonitrile], the IC50 was determined as 7 nM in test [1], 3 nM in test [2], 16 nM in test [4] and 289 nM in test [6]. For the same compound, the “FGFR1 Enz kobs” value in test [3] was 0.00447 min⁻¹. For the same compound, the “FGFR3 Enz kobs” value in test [5] is 0.07092 min⁻¹.
With `C=CC(=O)N1CC(C(=O)N2CC[C@@H](n3cc(-c4cc(OC)c5c(C#N)cnn5c4)cn3)C2)C1` [Example 59, (R)-6-(1-(1-(1-acryloylazetidine-3-carbonyl)pyrrolidin-3-yl)-1H-pyrazol-4-yl)-4-methoxypyrazolo[1,5-a]pyridine-3-carbonitrile], the IC50 in test [1] amounted to 16 nM; in test [2], 16 nM; in test [4], 47 nM; in test [6], 115 nM. For the same compound, the “FGFR1 Enz kobs” value in test [3] amounted to 0.00106 min⁻¹. Further, in test [5], the “FGFR3 Enz kobs” value came to 0.00665 min⁻¹.
Turning to `C=CS(=O)(=O)N[C@H]1CC[C@H](C(=O)N2CCC(n3cc(-c4cc(OC)c5c(C#N)cnn5c4)cn3)CC2)C1` [Example 190, N-((1S,3S)-3-(4-(4-(3-cyano-4-methoxypyrazolo[1,5-a]pyridin-6-yl)-1H-pyrazol-1-yl)piperidine-1-carbonyl)cyclopentyl)-ethenesulfonamide], the concentration for half-maximal inhibition (IC50) in test [1] was found to be 3 nM; in test [2], 3 nM; in test [4], 9 nM; in test [6], 37 nM. For the same compound, in test [3], the “FGFR1 Enz kobs” value is 0.00423 min⁻¹. The “FGFR3 Enz kobs” value in test [5] amounted to 0.02714 min⁻¹.
Turning to `C=CC(=O)N1CCC(C(=O)N2CCC(n3ncc(-c4cc(OC)c5c(C#N)cnn5c4)c3C)CC2)CC1` [Example 82, 6-(1-(1-(1-acryloylpiperidine-4-carbonyl)piperidin-4-yl)-5-methyl-1H-pyrazol-4-yl)-4-methoxypyrazolo[1,5-a]pyridine-3-carbonitrile], the IC50 is 9 nM in test [1], 23 nM in test [2], 73 nM in test [4] and 374 nM in test [6]. Further, the “FGFR1 Enz kobs” value in test [3] came to 0.00034 min⁻¹. Besides, the “FGFR3 Enz kobs” value in test [5] stood at 0.00319 min⁻¹.
Turning to `C=CC(=O)N1CC(C)(C(=O)N2CCC(n3cc(-c4cc(OC)c5c(C#N)cnn5c4)cn3)CC2)C1` [Example 38, 6-(1-(1-(1-acryloyl-3-methylazetidine-3-carbonyl)piperidin-4-yl)-1H-pyrazol-4-yl)-4-methoxypyrazolo[1,5-a]pyridine-3-carbonitrile], the IC50 in test [1] came to 3 nM; in test [2], 2 nM; in test [4], 10 nM; in test [6], 33 nM. Further, the “FGFR1 Enz kobs” value in test [3] is 0.00134 min⁻¹. Also, the “FGFR3 Enz kobs” value in test [5] was 0.01168 min⁻¹.
As to `C=CC(=O)Nc1ccc(C(=O)N2CC[C@@H](n3cc(-c4cc(OC)c5c(C#N)cnn5c4)cn3)C2)cc1` [Example 55, (R)-N-(4-(3-(4-(3-cyano-4-methoxypyrazolo[1,5-a]pyridin-6-yl)-1H-pyrazol-1-yl)pyrrolidine-1-carbonyl)phenyl)acrylamide], the IC50 in test [1] stood at 5 nM; in test [2], 7 nM; in test [4] it was 19 nM; in test [6], 98 nM. Besides, the “FGFR1 Enz kobs” value in test [3] was found to be 0.00277 min⁻¹. Also, in test [5], the “FGFR3 Enz kobs” value amounted to 0.0205 min⁻¹.
Take `C=CC(=O)N1CC(C(=O)N2CCC(n3cc(-c4cc(OC)c5c(C#N)cnn5c4)cn3)CC2)C1` [Example 36, 6-(1-(1-(1-acryloylazetidine-3-carbonyl)piperidin-4-yl)-1H-pyrazol-4-yl)-4-methoxypyrazolo[1,5-a]pyridine-3-carbonitrile]: the figures for the IC50 in test [2], in test [4] and in test [6] were 4 nM, 11 nM and 59 nM, respectively. The “FGFR1 Enz kobs” value in test [3] was 0.00127 min⁻¹. The “FGFR3 Enz kobs” value in test [5] came out at 0.01426 min⁻¹.
As for `C=CC(=O)Nc1ccc(C(=O)N2CCC(n3cc(-c4cc(OC)c5c(C#N)cnn5c4)cn3)CC2)cc1` [Example 177, N-(4-(4-(4-(3-cyano-4-methoxypyrazolo[1,5-a]pyridin-6-yl)-1H-pyrazol-1-yl)piperidine-1-carbonyl)phenyl)acrylamide], the 50% inhibitory concentration (IC50) in test [1] was 4 nM; in test [4], 11 nM. For the same compound, the “FGFR1 Enz kobs” value in test [3] worked out at 0.00324 min⁻¹. Also, the “FGFR3 Enz kobs” value in test [5] worked out at 0.01958 min⁻¹.

For orientation: IC50 means the concentration that inhibits the measured activity by half.
